# What was measured:
# [1] = O'Hare et al. 2005 Cancer Cell; cited from earlier work
# [2] = test system: drusen-associated protein transcripts; experiment: Reduced drusen expression: qPCR of drusen-associated protein transcripts in stressed RPE; assay type: cell-based, human; details: FIG. 4
# Procedure: RNA is isolated from the RPE cells at the end of the 24 hour rest period, according to the protocol in the Qiagen RNeasy Micro/Mini Kits. Once isolated, the RNA is converted into cDNA using a high-capacity RNA to cDNA conversion kit (Applied Biosystems). The resulting cDNA is then used in a qPCR assay, to quantitate expression of various drusen-associated genes, including genes encoding: αA-crystallin, αB-crystallin, βB1-crystallin, βB2-crystallin, βs-crystallin, αA4-crystallin, APP, APOE, APOJ, BACE-1, PS1, VEGF, VEGF R1, VEGF R2, PEDF, CC9, serum amyloid P, TIMP3, vitronectin, and H2AE. The expression level of one or more housekeeping genes, such as ribosomal S18 and GAPDH, is also quantitated. Forward and reverse PCR primers having the nucleotide sequences shown in Table 2, below, may be used with a SYBR green reporter from Applied Biosystems.
# [3] = test system: RPESC-derived RPE cells; experiment: Restored viability: LDH cytotoxicity assay in stressed RPESC-derived RPE
# [4] = test system: RPESC-derived RPE cells; experiment: Restored resistance: transepithelial resistance of RPESC-derived RPE after oxidative stress; assay type: cell-based, human; details: oxidative stress by TBHP; FIG. 3
# Text: The ability of a test substance to restore transepithelial resistance may also be determined in the RPE cell-based assay. RPE cells are a tight junctioned epithelia and compromised epithelial integrity is a hallmark of RPE-associated diseases, such as, e.g., dry AMD.
# Restored resistance. Healthy RPE form tight functioned epithelia layers with high electrical resistance. Compromising the integrity of these layers decreases the resistance and is indicative of a diseased state, such as dry or other forms of AMD.
# Preferably, each well of primary human RPE cells has a resistance greater than 200 Ω·cm^2 before beginning the experiment. Resistance of RPE treated with a test compound is measured again, after oxidative stress, and compared to the resistance in untreated RPE subjected to the same oxidative stress procedure.
compound,measurement,setting,value
Cc1cn(-c2cc(NC(=O)c3ccc(C)c(Nc4nccc(-c5cccnc5)n4)c3)cc(C(F)(F)F)c2)cn1 [AMN107],potency relative to imatinib mesylate,[1],20 fold
COc1cc(Nc2c(C#N)cnc3cc(OCCCN4CCN(C)CC4)c(OC)cc23)c(Cl)cc1Cl [Bosutinib],effect on TBHP-induced up-regulation of drusen-associated protein transcripts,[2],attenuates TBHP-induced up-regulation of drusen-associated protein transcripts
"Cc1ccc(NC(=O)c2ccc(CN3CCN(C)CC3)cc2)cc1Nc1nccc(-c2cccnc2)n1 [Gleevec, 4-[(4-methylpiperazin-1-yl)methyl]-N-(4-methyl-3-{[4-(pyridin-3-yl)pyrimidin-2-yl]amino}phenyl)benzamide]",cells viability restored compared to untreated controls,[3]; 1 µM,100%
same,cell death in treated cells,"[3]; 1 μM, 100% cell death in untreated controls",0%
same,effect on decrease in transepithelial resistance after oxidative stress,[4],attenuate the decrease in transepithelial resistance
same,effect on TBHP-induced up-regulation of drusen-associated protein transcripts,[2],attenuates TBHP-induced up-regulation of drusen-associated protein transcripts
Ponatinib,reduction in cell death compared to the cell lysis control,[3]; 500 nM,about 80%
same,effect on cytotoxicity,"[3]; 1 μM, FIG. 2",no effect on cytotoxicity

# — US20150051212A1, “Compositions And Methods For Inhibiting Drusen” (Regenerative Research Foundation, priority 2012, published 2015)
